Measured values taken from patent US20100267561A1, “HERBICIDAL PYRIDAZINONE DERIVATIVES” (priority 2007, published 2010).
Read-outs that look alike come from different tables or passages of the source.

Experiments:
Assay in all cases: Test B pre-/postemergence plant response
Format in all cases: in vivo
[1] = tested on: goosegrass (Eleusine indica); conditions: Preemergence
Outline: (§1)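 Preemergence and postemergence (plants 2-18 cm, 1- to 4-leaf stage) applications used test chemicals in a non-phytotoxic solvent with surfactant. Plants were held in a greenhouse 13 to 15 days, then rated visually against controls on a 0-100 scale (0 no effect, 100 complete control).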

[2] = tested on: johnsongrass (Sorghum halepense); conditions: for pest or weed control at 31 g/ha / pest or weed control at 62 g/ha: Sorghum halepense, read-out: Plant response rating, Johnsongrass; for pest or weed control at 31 g/ha: 31 g ai/ha; for pest or weed control at 62 g/ha: 62 g ai/ha, 100 complete control
Outline: as §1

[3] = tested on: pigweed (Amaranthus retroflexus); conditions: for pest or weed control at 31 g/ha / pest or weed control at 62 g/ha: Amaranthus retroflexus, read-out: Plant response rating, Pigweed; for pest or weed control at 31 g/ha: 31 g ai/ha; for pest or weed control at 62 g/ha: 62 g ai/ha, 100 complete control
Outline: as §1

soybean (Glycine max) = conditions: for plant injury at 31 g/ha / plant injury at 62 g/ha: Glycine max, read-out: Plant response rating, Soybean; for plant injury at 31 g/ha: 31 g ai/ha; for plant injury at 62 g/ha: 62 g ai/ha, 100 complete control
Outline: as §1

[4] = tested on: velvetleaf (Abutilon theophrasti); conditions: for pest or weed control at 31 g/ha / pest or weed control at 62 g/ha: Abutilon theophrasti, read-out: Plant response rating, Velvetleaf; for pest or weed control at 31 g/ha: 31 g ai/ha; for pest or weed control at 62 g/ha: 62 g ai/ha, 100 complete control
Outline: as §1

[5] = tested on: wheat (Triticum aestivum); conditions: for plant injury at 31 g/ha / plant injury at 62 g/ha: Triticum aestivum, read-out: Plant response rating, Wheat; for plant injury at 31 g/ha: 31 g ai/ha; for plant injury at 62 g/ha: 62 g ai/ha, 100 complete control
Outline: as §1

[6] = 8 g ai/ha, postemergence, 0-100 scale
[7] = 16 g ai/ha, postemergence, 0-100 scale
[8] = Preemergence, 8 g ai/ha, scale 0 to 100 (0 no effect, 100 complete control)
[9] = Preemergence, 16 g ai/ha, scale 0 to 100
[10] = post-emergence, Postemergence, scale 0 to 100
[11] = post-emergence, Postemergence, scale 0 to 100, 0 no effect
[12] = pre-emergence, Preemergence, scale 0 to 100 (0 no effect, 100 complete control)
[13] = pre-emergence, Preemergence, 0 to 100 scale, 0 no effect

SMILES: Cc1cc(-c2ccc(Br)cc2)nn1-c1c(O)cn[nH]c1=O [Compound 78, 4-[3-(4-bromophenyl)-5-methyl-1H-pyrazol-1-yl]-5-hydroxy-3(2H)-pyridazinone]
- pest or weed control at 31 g/ha ([1]; Eleusine indica, pre-emergence, 31 g ai/ha, scale 0 to 100 (0 no effect, 100 complete control), read-out: Plant response rating, Goosegrass): 100%
- pest or weed control at 62 g/ha ([1]; Eleusine indica, pre-emergence, 62 g ai/ha, 0 to 100 scale, 0 no effect, 100 complete control, read-out: Plant response rating, Goosegrass): 100%
- Goosegrass plant response rating ([1]; 8 g ai/ha, scale 0 to 100 (0 no effect, 100 complete control)): 85
- Goosegrass plant response rating ([1]; 16 g ai/ha, scale 0 to 100): 100
- Johnsongrass plant response rating [2, 6]: 75
- Johnsongrass plant response rating [2, 7]: 100
- Johnsongrass plant response rating [2, 8]: 60
- Johnsongrass plant response rating [2, 9]: 80
- pest or weed control at 31 g/ha [2, 10]: 100%
- pest or weed control at 62 g/ha [2, 11]: 100%
- pest or weed control at 31 g/ha [2, 12]: 95%
- pest or weed control at 62 g/ha [2, 13]: 100%
- Pigweed plant response rating [3, 6]: 0
- Pigweed plant response rating [3, 7]: 0
- pest or weed control at 31 g/ha [3, 10]: 0%
- pest or weed control at 62 g/ha [3, 11]: 0%
- pest or weed control at 31 g/ha [3, 12]: 0%
- pest or weed control at 62 g/ha [3, 13]: 0%
- Pigweed plant response rating [3, 8]: 0
- Pigweed plant response rating [3, 9]: 0
- Soybean plant response rating (soybean (Glycine max); [6]): 0
- Soybean plant response rating (soybean (Glycine max); [7]): 15
- plant injury at 31 g/ha (soybean (Glycine max); [10]): 20%
- plant injury at 62 g/ha (soybean (Glycine max); [11]): 25%
- plant injury at 31 g/ha (soybean (Glycine max); [12]): 0%
- plant injury at 62 g/ha (soybean (Glycine max); [13]): 0%
- Soybean plant response rating (soybean (Glycine max); [8]): 0
- Soybean plant response rating (soybean (Glycine max); [9]): 0
- Velvetleaf plant response rating [4, 6]: 0
- Velvetleaf plant response rating [4, 7]: 0
- pest or weed control at 31 g/ha [4, 10]: 0%
- pest or weed control at 62 g/ha [4, 11]: 0%
- pest or weed control at 31 g/ha [4, 12]: 0%
- pest or weed control at 62 g/ha [4, 13]: 0%
- Velvetleaf plant response rating [4, 8]: 0
- Velvetleaf plant response rating [4, 9]: 0
- Wheat plant response rating [5, 6]: 50
- Wheat plant response rating [5, 7]: 85
- Wheat plant response rating [5, 8]: 0
- Wheat plant response rating [5, 9]: 80
- plant injury at 31 g/ha [5, 10]: 98%
- plant injury at 62 g/ha [5, 11]: 100%
- plant injury at 31 g/ha [5, 12]: 90%
- plant injury at 62 g/ha [5, 13]: 95%
